Measured values: patent publication US20160109438A1, “PROTEASE-RESPONSIVE PEPTIDE BIOSENSORS AND METHODS FOR ANALYTE DETECTION” (AGENCY FOR SCIENCE, TECHNOLOGY AND RESEARCH, priority 2013, published 2016)

Tests used:
Mdm2 = target: T1, Mdm2 (Homo sapiens, UniProt Q00987); assay: Mdm2-enterokinase sensor assay; format: biochemical; settings: for substrate turnover (time course): sensor with enterokinase and mdm2, compared with DMSO only
T1 construct: derived from N-terminal domain (amino acids 18-125) of wild type Mdm2 protein; 10x His; made in house; host or cells: E. coli
Method: Nutlin was used as the positive control and a mutant p53 peptide, which cannot bind to Mdm2 was used as the negative control. The reaction was monitored using absorbance measurements at OD492 on a Perkin Elmer plate reader every 2 min. The signal was calculated from reading 5 minus reading 3. This assay was repeated three times and the average gradient value with standard error was reported.
The screening was divided into two steps. In the first step, the screening was carried out at the fixed compound concentration of […]. In the second step, a dose-response experiment of different hits found in the first step was conducted. […] The OD492 value of read number 3 was subtracted from that of read number 5 (OD492 readings were taken every 2 min) which was designated as signal. […] Fold change=Gradient of Hits (Reading 5−Reading 3)/Gradient of control (Reading 5−Reading 3)

Mdm2 N-terminal domain = Mdm2 N-terminal domain (Homo sapiens, UniProt Q00987); assay: Protease exclusion sensor using fluorescence labeled internally quenched peptide (P1); settings: for response of the peptide sensor (rate of fluorescence increase): various concentrations, with enterokinase and Mdm2
[1] = target: HA antibody (clone not named, FIG. 3B and FIG. 8B); assay: cell-based or functional assay
HA antibody / HA epitope = assay: HA-enterokinase sensor assay; format: biochemical; settings: 0 nM, 4 nM, 40 nM, 400 nM and 4000 nM; enterokinase and HA antibody present
HA antibody = assay: Thrombin-HA protease exclusion sensor; format: biochemical
From the text: An HA-antibody binds to the HA epitope ([…]; SEQ ID NO:3). The Binding of an anti-HA antibody to its epitope would disallow protease, access to its recognition site due to steric obstruction by the higher affinity HA antibody. Addition of excess HA peptide should sequester the HA antibody, leading to renewed protease access to its recognition site, bringing about increased enzyme activity in response to the HA peptide. […] Starting from the left, the rate of substrate turnover is shown after 0 nM, 4 nM, 40 nM, 400 nM and 4000 nM addition of free HA peptide to the tested sensor.

[2] = target: T2, Mdm2 N-terminal domain (amino acids 18-125) of wild type Mdm2 protein engineered with 10x His tag (UniProt Q00987 18-125); assay: Mdm2-enterokinase sensor assay, substrate turnover at OD492
T2 construct: range 18-125; expressed in E. coli; also called Mdm2 N-terminus; Mdm2 N terminus
T2 sequence (Q00987 18-125 limits assumed, change not shown): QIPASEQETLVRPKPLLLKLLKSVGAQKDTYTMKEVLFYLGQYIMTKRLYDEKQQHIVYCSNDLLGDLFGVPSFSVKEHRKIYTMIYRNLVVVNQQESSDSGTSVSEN

T1 sequence (Q00987 18-125, species assumed): as the sequence (Q00987 18-125 limits assumed, change not shown) above
Mdm2 N-terminal domain, sequence (Q00987 18-125): as the sequence (Q00987 18-125 limits assumed, change not shown) above

Molecule: ETASDLAKLAP (mutated p53 peptide) [mutant p53 peptide]
- substrate turnover (time course) (Mdm2): does not lead to increased turnover
- response of the peptide sensor (rate of fluorescence increase) (Mdm2 N-terminal domain): not

Molecule: free HA peptide
- HA peptide concentration with the highest substrate turnover (thrombin-HA protease exclusion sensor) [1]: 400 nM

Molecule: O=c1[nH]cc(F)c(=O)[nH]1 [5 FU]
- substrate turnover (time course) (Mdm2): does not lead to increased turnover

Molecule: HA peptide: free peptide of the influenza hemagglutinin (HA) epitope, sequesters the HA antibody
- substrate turnover after addition of free HA peptide (HA antibody / HA epitope): concentration-dependent increase of substrate turnover
- rate of substrate turnover (HA antibody; thrombin and HA antibody, varying amounts of free peptide): increases with increasing amount
- amount of peptide giving the highest substrate turnover (HA antibody; thrombin-HA protease exclusion sensor): 400 nM

Molecule: Nutlin
- substrate turnover (time course) (Mdm2): substrate turnover increases substantially
- rate of turnover of substrate in response to various amounts (Mdm2; various amounts of competitor): increased turnover signal
- detectable concentrations (Mdm2 N-terminal domain; signal to noise ratio ~5-6x): low micromolar
- response of the peptide sensor (rate of fluorescence increase) (Mdm2 N-terminal domain): strong response

B1: mutant p53 peptide with critical residues mutated to alanine (ETASDLAKLAP) (peptide)
peptide: ETASDLAKLAP
notes: Synthetic negative control peptide; also called peptide C
- binding result [2]: no binding
